The text below walks through data of publication PMC9995496, “A screen for MeCP2-TBL1 interaction inhibitors using a luminescence-based assay” (Scientific Reports, 2023).

Structures are written as SMILES. Structures can show the parent of a compound that is named as a salt. Where two headings read alike, the source gives them in different places.

The experiment concerns PRKACA-PRKAR2A interaction (SmBiT-PRKACA / LgBiT-PRKAR2A), protein kinase A. More on the design: NanoLuc complementation counter-screen in cell extract, PRKACA with PRKAR2A, loss of luminescence, detects NanoLuc interference. Particulars: counter-screen for NanoLuc interference, 0.5 h, 20 µM, inhibitor. For orientation: The purpose of a counterscreen is to sort out artefacts and off-target activity.

For the molecule `CN1CCN(C2CCN(C(=O)Nc3cc(Oc4ccc(NC(=O)C5(C(=O)Nc6ccc(F)cc6)CC5)c(F)c4)ccn3)CC2)CC1` [UM0142258:01, Golvatinib (E7050)], the “Inh (PKA)” value is recorded as 5.292%.
Regarding `CN1C(C(=O)Nc2ccccn2)=C(O)c2sc(Cl)cc2S1(=O)=O` [UM0142259:01, Lornoxicam], the “Inh (PKA)” value was 33.4%.
Consider `CCc1cccc2c3c([nH]c12)C(CC)(CC(=O)O)OCC3` (stereo not drawn) [UM0142260:01, Etodolac], for which the “Inh (PKA)” value came to 0.3149%.
Same read-out and setting: next, `CC(C(=O)O)c1cccc(C(=O)c2ccccc2)c1` (stereo not drawn) [UM0142261:01, Ketoprofen]: -0.4888%.
For `O=C(c1ccccc1)c1ccc2n1CCC2C(=O)O` (stereo not drawn) [UM0142262:01, Ketorolac tromethamine salt], the “Inh (PKA)” value (Inh (PKA)) is reported as -1.185%.
On to `CC1(C)Cc2c(-c3ccccc3)c(-c3ccc(Cl)cc3)c(CC(=O)O)n2C1` [UM0142263:01, Licofelone], for which the “Inh (PKA)” value was 28.18%.
For the molecule `Cc1ccc(Nc2c(F)cccc2Cl)c(CC(=O)O)c1` [UM0142264:01, Lumiracoxib], the “Inh (PKA)” value is listed as 7.46%.
As for `CC(C(=O)O)c1ccc2c(c1)CC(=O)c1ccccc1S2` (stereo not drawn) [UM0142265:01, Zaltoprofen], the “Inh (PKA)” value turned out to be 16.72%.
On the same count and under the same terms, the value for `COc1cc(-c2ncn(/C=C\C(=O)OC(C)C)n2)cc(C(F)(F)F)c1` [UM0142266:01, KPT-185] was 22.3%.
Still for that read-out and setting: next, `O=C(/C=C\n1cnc(-c2cc(C(F)(F)F)cc(C(F)(F)F)c2)n1)N1CC(F)(F)C1` [UM0142267:01, KPT-276]: 9.545%; `O=C1[C@@H]2[C@H]3CC[C@H](C3)[C@@H]2C(=O)N1C[C@@H]1CCCC[C@H]1CN1CCN(c2nsc3ccccc23)CC1` [UM0142271:01, Lurasidone HCl]: 12.01%.
On the same count and under the same terms, next, `CCN1CCCC1CNC(=O)c1cc(S(=O)(=O)CC)c(N)cc1OC` (stereo not drawn) [UM0142272:01, Amisulpride]: 0.7269%.
On to `CCCN[C@H]1CCc2nc(N)sc2C1` [UM0142273:01, Pramipexole], for which the “Inh (PKA)” value is -0.01445%.
Turning to `OCCOCCN1CCN(C2=Nc3ccccc3Sc3ccccc32)CC1` [UM0142275:01, Quetiapine Fumarate], the “Inh (PKA)” value turned out to be 6.997%.
Same read-out and setting: the value for `CCOC(=O)c1ccc(N2NC(=O)/C(=C/c3ccc([N+](=O)[O-])o3)C2=O)cc1` [UM0142276:01, PYR-41] was 36.3%.
As for `COc1cc2c(cc1-c1c(C)noc1C)ncc1[nH]c(=O)n([C@H](C)c3ccccn3)c12` [UM0142279:01, I-BET151 (GSK1210151A)], the “Inh (PKA)” value is listed as 10.84%.
The same measure, in the same setting: next, `C[C@]12CC[C@@H]3c4ccc(O)cc4CC[C@H]3[C@@H]1CC[C@@H]2OC(=O)CCC1CCCC1` [UM0142280:01, Estradiol Cypionate]: 4.433%; `C=CC[C@]1(O)CC[C@H]2[C@@H]3CCC4=CC(=O)CCC4=C3C=C[C@@]21C` [UM0142281:01, Altrenogest]: 7.202%.
For the molecule `CCCCC(=O)O[C@H]1CC[C@H]2[C@@H]3CCc4cc(O)ccc4[C@H]3CC[C@]12C` [UM0142282:01, Estradiol valerate], the “Inh (PKA)” value turned out to be 9.885%.
In the case of `CC[C@H](c1ccc(O)cc1)[C@@H](CC)c1ccc(O)cc1` [UM0142283:01, Hexestrol], the “Inh (PKA)” value stood at 49.6%.
As for `CC(=O)O[C@]1(C(C)=O)CC[C@H]2[C@@H]3C[C@H](C)C4=CC(=O)CC[C@]4(C)[C@H]3CC[C@@]21C` [UM0142284:01, Medroxyprogesterone acetate], the “Inh (PKA)” value is recorded as 6.658%.
The same measure, in the same setting: next, `CC(=O)[C@H]1CC[C@H]2[C@@H]3CC=C4C[C@@H](O)CC[C@]4(C)[C@H]3CC[C@]12C` [UM0142285:01, Pregnenolone]: 6.585%; `C[C@]12CCC3=C4CCC(=O)C=C4CC[C@H]3[C@@H]1CC[C@@]2(O)CC#N` [UM0142287:01, Dienogest]: -0.135%.
Same read-out and setting: the value for `C#C[C@]1(O)C=C[C@H]2[C@@H]3CCC4=CC(=O)CC[C@@H]4[C@H]3CC[C@@]21CC` [UM0142288:01, Gestodene] was 7.119%; that for `CS(=O)(=O)c1cccc(CNc2nc(Nc3ccc4c(c3)CCC(=O)N4)ncc2C(F)(F)F)c1` [UM0142290:01, PF-573228] was 25.03%; that for `COc1c(C)c(C(=O)c2ccc(N)c(C(=O)O)c2)n2ccccc12` [UM0142292:01, SSR128129E] was 31.08%.
On the same count and under the same terms, next, `CC(C)c1onc(-c2c(Cl)cccc2Cl)c1COc1ccc(/C=C/c2cccc(C(=O)O)c2)c(Cl)c1` [UM0142293:01, GW4064]: 30.87%.
With `NCC1(CC(=O)O)CCCCC1` [UM0142295:01, Gabapentin HCl], the “Inh (PKA)” value (Inh (PKA)) is listed as 0.4431%.
As for `COc1ccnc2[nH]cc(C(=O)C(=O)N3CCN(C(=O)c4ccccc4)C[C@H]3C)c12` [UM0142297:01, BMS-378806], the “Inh (PKA)” value turned out to be 0.2509%.
Same read-out and setting: next, `N#Cc1ccc2[nH]c(O)c(-c3ccc(CN4CCOCC4)cn3)c2c1` [UM0142298:01, AZD1080]: 15.47%; `CC(C)(C)c1ccc(CN2CCN(C(c3ccccc3)c3ccc(Cl)cc3)CC2)cc1` (stereo not drawn) [UM0142302:01, Buclizine HCl]: 2.001%.
On the same count and under the same terms, next, `CN/C(=N\CCSCc1nc[nH]c1C)NC#N` [UM0142305:01, Cimetidine]: 1.548%; `Cc1ccc2c(c1)c1c(n2CCc2ccc(C)nc2)CCN(C)C1` [UM0142307:01, Latrepirdine]: 3.431%; `CN(C)CC/C=C1/c2ccccc2COc2ccc(CC(=O)O)cc21` [UM0142309:01, Olopatadine HCl]: -1.243%.
Take `CCC(CC)(NC(=O)C(C)C)C(=O)N[C@@H](CCCN=C(N)N)C(=O)NC1(C(=O)NC(c2ccc(F)cc2)c2ccc(F)cc2)CCCC1` [UM0142313:01, MM-102]: the “Inh (PKA)” value is on record as 12.23%.
Regarding `O=C(c1ccc(Nc2nccc(-c3cc4ccccc4s3)n2)cc1)N1CCC(N2CCCC2)CC1` [UM0142314:01, IKK-16 (IKK Inhibitor VII)], the “Inh (PKA)” value is 16.61%.
On the same count and under the same terms, next, `O=C(Nc1cc(C(F)(F)F)cc(C(F)(F)F)c1)c1cc(Cl)ccc1O` [UM0142315:01, IMD 0354]: 90.14%.
As to `C1=N/C2=N/c3ccc(OCCN4CCCC4)c(c3)COC/C=C/COCc3cccc(c3)C(=C1)N2` [UM0142316:01, Pacritinib (SB1518)], the “Inh (PKA)” value was determined as 30.05%.
Consider `Cc1ccc(C(=O)N(CCCN)[C@@H](c2oc3cc(Cl)ccc3c(=O)c2Cc2ccccc2)C(C)C)cc1` [UM0142317:01, SB743921], for which the “Inh (PKA)” value was determined as 14.68%.
In the case of `Nc1nc(N)nc(-c2cc(Cl)ccc2Cl)n1` [UM0142318:01, Irsogladine], the “Inh (PKA)” value is listed as 5.104%.
On the same count and under the same terms, the value for `C[N+](C)(C)CCOC(=O)CCC(=O)OCC[N+](C)(C)C` [UM0142319:01, Succinylcholine Chloride Dihydrate] was -1.734%; that for `O=C(O[C@H]1C[N+]2(CCCOc3ccccc3)CCC1CC2)C(O)(c1cccs1)c1cccs1` [UM0142325:01, Aclidinium Bromide] was 1.77%.
Still for that read-out and setting: the value for `C[N+]1(C)[C@@H]2C[C@@H](OC(=O)[C@H](CO)c3ccccc3)C[C@H]1[C@@H]1O[C@@H]12` [UM0142326:01, Methscopolamine] was 1.249%; that for `COc1cc(OC)c(NC(=O)Nc2cc(C)on2)cc1Cl` [UM0142328:01, PNU-120596] was 15.14%.
The same measure, in the same setting: next, `Cn1c(=O)c(F)c(Nc2ccc(I)cc2F)c2c(=O)n(C[C@@H](O)CO)cnc21` [UM0142329:01, TAK-733]: 15.12%; `Cc1cc(Nc2ccc(NC(=O)c3ccc(Nc4ccnc5ccccc45)cc3)cc2)nc(N)n1` [UM0142330:01, SGI-1027]: 9.462%.
Consider `c1cncc(CN2CCC(n3ncc4c(N5CCOCC5)nc(-c5ccc6[nH]ccc6c5)nc43)CC2)c1` [UM0142335:01, WAY-600], for which the “Inh (PKA)” value is given as 7.744%.
Turning to `CNC(=O)Nc1ccc(-c2nc(N3CC4CCC(C3)O4)c3cnn(C4CCC5(CC4)OCCO5)c3n2)cc1` [UM0142336:01, WYE-125132 (WYE-132)], the “Inh (PKA)” value was found to be 31.62%.
Consider `Cc1ccc(NCCCc2ccccc2)c(N)c1` [UM0142338:01, JSH-23], for which the “Inh (PKA)” value was 14.43%.
As for `Nc1c(CC(=O)O)cccc1C(=O)c1ccccc1` [UM0142341:01, Amfenac Sodium Monohydrate], the “Inh (PKA)” value is 3.127%.
In the case of `Nc1c(CC(=O)O)cccc1C(=O)c1ccc(Br)cc1` [UM0142342:01, Bromfenac Sodium], the “Inh (PKA)” value is 5.05%.
In the case of `CC(C(=O)O)c1ccc2c(c1)[nH]c1ccc(Cl)cc12` (stereo not drawn) [UM0142344:01, Carprofen], the “Inh (PKA)” value was 82.74%.
Same read-out and setting: next, `CO/N=C(\C(=O)N[C@@H]1C(=O)N2C(C(=O)O)=C(CSc3nc(=O)c(O)nn3C)CS[C@H]12)c1csc(N)n1` [UM0142345:01, Ceftriaxone Sodium Trihydrate]: 3.455%; `Cc1c(O)c(=O)ccn1C` [UM0142352:01, Deferiprone]: 0.006466%.
With `CN(C)CCOC(C)(c1ccccc1)c1ccccn1` (stereo not drawn) [UM0142354:01, Doxylamine Succinate], the “Inh (PKA)” value is 1.104%.
The same measure, in the same setting: the value for `CCOC(CN1CCN(CC(C)C(=O)c2ccccc2)CC1)c1ccccc1` (stereo not drawn) [UM0142356:01, Eprazinone 2HCl] was 5.222%; that for `COC(=O)Nc1nc2cc(C(=O)c3ccc(F)cc3)ccc2[nH]1` [UM0142358:01, Flubendazole] was 6.18%; that for `CCC(=O)O[C@]1(C(=O)CCl)[C@@H](C)C[C@H]2[C@@H]3C[C@H](F)C4=CC(=O)C=C[C@]4(C)[C@@]3(F)[C@@H](O)C[C@@]21C` [UM0142361:01, Halobetasol Propionate] was 7.218%.
As to `NCCc1c[nH]cn1` [UM0142362:01, Histamine Phosphate], the “Inh (PKA)” value (Inh (PKA)) was -0.9808%.
Regarding `CCCCCN(C)CCC(O)(P(=O)(O)O)P(=O)(O)O` [UM0142363:01, Ibandronate sodium], the “Inh (PKA)” value is listed as 1.018%.
